Experimental data reported in patent US20110038885A1, “CHEMOKINE ANALOGS” (priority 2007, published 2011).
Numbered stars: 1 amine (or outer) side, 2 acyl side, 3 side chain; on linkers, the order of the positions; unused ones are H or OH. Bridge positions count the residues as written; N and C are the ends. Square brackets hold non-standard residues; d marks the D form. Peptide text beside a SMILES is read from it. * marks the point of attachment. NH(CH2)8CO = O=C(CCCCCCCCN[*:1])[*:2]; Isobutyryl = CC(C)C(=O)*; Orn = NCCC[C@H](N)C(=O)O; Dab = NCC[C@H](N)C(=O)O; Dap = NC[C@H](N)C(=O)O

Test system: MCP-1
Assay: In vitro chemotaxis (trans-well migration) v MCP-1
Assay type: cell-based, human
Procedure: To determine whether an agent inhibits a chemokine-induced activity, such as macrophage recruitment, varying amounts of the agent are mixed with cells in the presence of a known chemoattractant. For example, a range of known concentrations of an agent, e.g., a chemokine peptide, is incubated with a defined number (e.g., 10^4-10^6) of human THP-1 monocyte cells in individual wells of the top compartment of a trans-well plate. Chemokine, at a concentration known to cause significant migration of THP-1 cells in the trans-well migration assay, is placed in the lower compartment of a trans-well plate. Cells are then incubated at 37° C. for a period sufficient to allow migration, e.g., 4 hours. After incubation, the cells are gently removed from the top of the filter with a pipette, 20 μl of 20 mM EDTA in simple PBS is added into each top well, and incubated for 20 minutes at 4° C. The filter is carefully flushed with media using a gentle flow, and removed. A standard curve consisting of a two-fold dilution series of THP-1 cells (in 29 μl) is placed to accurately quantify the number of cells that have migrated. Migrated cells are stained with 3 μl of MTT stock dye solution which is added directly into each well (5 mg/ml in RPMI-1640 without phenol red) (Sigma Chemical Co., St. Louis, Mo., USA) and incubated at 37° C. for 4 hours. The media is carefully aspirated from each well, and the converted dye is solubilized by 20 μl of DMSO. Absorbance of converted dye is measured at a wavelength of 595 nm using an ELISA plate reader. The number of migrated cells in each well is then determined by interpolation of the standard curve (see also Imai et al., J. Biol. Chem., 272:15036, 1997). Any method suitable for counting cells can be used, for example, counting with a hemocytometer, incubation of the cells with MTT (see above), or FACS analysis. A negative control assay is also performed, using TGFβ or another non-chemokine chemoattractant (e.g., IL1β or TNFα). To assess whether the agent is cytotoxic, the same concentrations of agent are incubated with THP-1 cells. Agents which 1) are not cytotoxic at levels which inhibit migration, 2) are ineffective at inhibiting the negative control-induced migration, and 3) reduce or inhibit chemokine-induced THP-1 migration, are agents which fall within the scope of the invention.

EC50 [nM] | Structure (SMILES)
15 | CC[C@H](C)[C@@H]1NC(=O)[C@H](Cc2c[nH]c3ccccc23)NC(=O)[C@H](CCCCN)NC(=O)CCCCCCCCNC(=O)CC[C@@H](C(N)=O)NC(=O)[C@H](CCC(N)=O)NC1=O [Example 98, c(Anc-Lys-Trp-Ile-Gln-Glu)-NH2] ([NH(CH2)8CO]KWIQE-NH2; lactam N-6)
50 | CC[C@H](C)[C@@H]1NC(=O)[C@H](Cc2c[nH]c3ccccc23)NC(=O)[C@H](CCCCN)NC(=O)[C@@H](NC(=O)C(C)C)CC(=O)NCCC[C@@H](C(N)=O)NC(=O)[C@H](CCC(N)=O)NC1=O [Example 99, Isobutyryl-c(Asp-Lys-Trp-Ile-Gln-Orn)-NH2] (Isobutyryl-DKWIQ[Orn]-NH2; lactam 1-6)
10 | CC[C@H](C)[C@@H]1NC(=O)[C@H](Cc2c[nH]c3ccccc23)NC(=O)[C@H](CCCCN)NC(=O)[C@@H](NC(=O)C(C)C)CCC(=O)NC[C@@H](C(N)=O)NC(=O)[C@H](CCC(N)=O)NC1=O [Example 100, Isobutyryl-c(Glu-Lys-Trp-Ile-Gln-Dap)-NH2] (Isobutyryl-EKWIQ[Dap]-NH2; lactam 1-6)
4 | CC[C@H](C)[C@@H]1NC(=O)[C@H](Cc2c[nH]c3ccccc23)NC(=O)[C@H](CCCCN)NC(=O)[C@@H](NC(=O)C(C)C)CCC(=O)NCC[C@@H](C(N)=O)NC(=O)[C@H](CCC(N)=O)NC1=O [Example 101, Isobutyryl-c(Glu-Lys-Trp-Ile-Gln-Dab)-NH2] (Isobutyryl-EKWIQ[Dab]-NH2; lactam 1-6)
10 | CC[C@H](C)[C@@H]1NC(=O)[C@H](Cc2c[nH]c3ccccc23)NC(=O)[C@H](CCCCN)NC(=O)[C@@H](NC(=O)C(C)C)CCC(=O)NCCC[C@@H](C(N)=O)NC(=O)[C@H](CCC(N)=O)NC1=O [Example 102, Isobutyryl-c(Glu-Lys-Trp-Ile-Gln-Orn)-NH2] (Isobutyryl-EKWIQ[Orn]-NH2; lactam 1-6)
8 | CC[C@H](C)[C@@H]1NC(=O)[C@H](Cc2c[nH]c3ccccc23)NC(=O)[C@H](CCCCN)NC(=O)[C@@H](NC(=O)C(C)C)CCC(=O)NCCCC[C@@H](C(N)=O)NC(=O)[C@H](CCC(N)=O)NC1=O [Example 103, Isobutyryl-c(Glu-Lys-Trp-Ile-Gln-Lys)-NH2] (Isobutyryl-EKWIQK-NH2; lactam 1-6)
50 | CC[C@H](C)[C@@H]1NC(=O)[C@H](Cc2c[nH]c3ccccc23)NC(=O)[C@H](CCCCN)NC(=O)[C@@H](NC(=O)C(C)C)CNC(=O)C[C@@H](C(N)=O)NC(=O)[C@H](CCC(N)=O)NC1=O [Example 104, Isobutyryl-c(Dap-Lys-Trp-Ile-Gln-Asp)-NH2] (Isobutyryl-[Dap]KWIQD-NH2; lactam 1-6)
15 | CC[C@H](C)[C@@H]1NC(=O)[C@H](Cc2c[nH]c3ccccc23)NC(=O)[C@H](CCCCN)NC(=O)[C@@H](NC(=O)C(C)C)CCNC(=O)C[C@@H](C(N)=O)NC(=O)[C@H](CCC(N)=O)NC1=O [Example 105, Isobutyryl-c(Dab-Lys-Trp-Ile-Gln-Asp)-NH2] (Isobutyryl-[Dab]KWIQD-NH2; lactam 1-6)
8 | CC[C@H](C)[C@@H]1NC(=O)[C@H](Cc2c[nH]c3ccccc23)NC(=O)[C@H](CCCCN)NC(=O)[C@@H](NC(=O)C(C)C)CCCCNC(=O)C[C@@H](C(N)=O)NC(=O)[C@H](CCC(N)=O)NC1=O [Example 106, Isobutyryl-c(Lys-Lys-Trp-Ile-Gln-Asp)-NH2] (Isobutyryl-KKWIQD-NH2; lactam 1-6)
8 | CC[C@H](C)[C@@H]1NC(=O)[C@H](Cc2c[nH]c3ccccc23)NC(=O)[C@H](CCCCN)NC(=O)[C@@H](NC(=O)C(C)C)CCNC(=O)CC[C@@H](C(N)=O)NC(=O)[C@H](CCC(N)=O)NC1=O [Example 107, Isobutyryl-c(Dab-Lys-Trp-Ile-Gln-Glu)-NH2] (Isobutyryl-[Dab]KWIQE-NH2; lactam 1-6)
8 | CC[C@H](C)[C@@H]1NC(=O)[C@H](Cc2c[nH]c3ccccc23)NC(=O)[C@H](CCCCN)NC(=O)[C@@H](NC(=O)C(C)C)CCCNC(=O)CC[C@@H](C(N)=O)NC(=O)[C@H](CCC(N)=O)NC1=O [Example 108, Isobutyryl-c(Orn-Lys-Trp-Ile-Gln-Glu)-NH2] (Isobutyryl-[Orn]KWIQE-NH2; lactam 1-6)
8 | CC[C@H](C)[C@@H]1NC(=O)[C@H](Cc2c[nH]c3ccccc23)NC(=O)[C@H](CCCCN)NC(=O)[C@@H](NC(=O)C(C)C)CCCCNC(=O)CC[C@@H](C(N)=O)NC(=O)[C@H](CCC(N)=O)NC1=O [Example 109, Isobutyryl-c(Lys-Lys-Trp-Ile-Gln-Glu)-NH2] (Isobutyryl-KKWIQE-NH2; lactam 1-6)
8 | CC[C@H](C)[C@@H]1NC(=O)[C@H](Cc2c[nH]c3ccccc23)NC(=O)[C@H](CCCCN)NC(=O)[C@@H](NC(C)=O)CC(=O)NC[C@@H](C(N)=O)NC(=O)[C@H](CCC(N)=O)NC1=O [Example 110, Ac-c(Asp-Lys-Trp-Ile-Gln-Dap)-NH2] (Ac-DKWIQ[Dap]-NH2; lactam 1-6)
4 | CC[C@H](C)[C@@H]1NC(=O)[C@H](Cc2c[nH]c3ccccc23)NC(=O)[C@H](CCCCN)NC(=O)[C@@H](NC(C)=O)CC(=O)NCC[C@@H](C(N)=O)NC(=O)[C@H](CCC(N)=O)NC1=O [Example 111, Ac-c(Asp-Lys-Trp-Ile-Gln-Dab)-NH2] (Ac-DKWIQ[Dab]-NH2; lactam 1-6)
6 | CC[C@H](C)[C@@H]1NC(=O)[C@H](Cc2c[nH]c3ccccc23)NC(=O)[C@H](CCCCN)NC(=O)[C@@H](NC(C)=O)CC(=O)NCCC[C@@H](C(N)=O)NC(=O)[C@H](CCC(N)=O)NC1=O [Example 112, Ac-c(Asp-Lys-Trp-Ile-Gln-Orn)-NH2] (Ac-DKWIQ[Orn]-NH2; lactam 1-6)
30 | CC[C@H](C)[C@@H]1NC(=O)[C@H](Cc2c[nH]c3ccccc23)NC(=O)[C@H](CCCCN)NC(=O)[C@@H](NC(C)=O)CCC(=O)NC[C@@H](C(N)=O)NC(=O)[C@H](CCC(N)=O)NC1=O [Example 113, Ac-c(Glu-Lys-Trp-Ile-Gln-Dap)-NH2] (Ac-EKWIQ[Dap]-NH2; lactam 1-6)
8 | CC[C@H](C)[C@@H]1NC(=O)[C@H](Cc2c[nH]c3ccccc23)NC(=O)[C@H](CCCCN)NC(=O)[C@@H](NC(C)=O)CCC(=O)NCC[C@@H](C(N)=O)NC(=O)[C@H](CCC(N)=O)NC1=O [Example 114, Ac-c(Glu-Lys-Trp-Ile-Gln-Dab)-NH2] (Ac-EKWIQ[Dab]-NH2; lactam 1-6)
5 | CC[C@H](C)[C@@H]1NC(=O)[C@H](Cc2c[nH]c3ccccc23)NC(=O)[C@H](CCCCN)NC(=O)[C@@H](NC(C)=O)CCC(=O)NCCC[C@@H](C(N)=O)NC(=O)[C@H](CCC(N)=O)NC1=O [Example 115, Ac-c(Glu-Lys-Trp-Ile-Gln-Orn)-NH2] (Ac-EKWIQ[Orn]-NH2; lactam 1-6)
8 | CC[C@H](C)[C@@H]1NC(=O)[C@H](Cc2c[nH]c3ccccc23)NC(=O)[C@H](CCCCN)NC(=O)[C@@H](NC(C)=O)CCC(=O)NCCCC[C@@H](C(N)=O)NC(=O)[C@H](CCC(N)=O)NC1=O [Example 116, Ac-c(Glu-Lys-Trp-Ile-Gln-Lys)-NH2] (Ac-EKWIQK-NH2; lactam 1-6)
5 | CC[C@H](C)[C@@H]1NC(=O)[C@H](Cc2c[nH]c3ccccc23)NC(=O)[C@H](CCCCN)NC(=O)[C@@H](NC(C)=O)CNC(=O)C[C@@H](C(N)=O)NC(=O)[C@H](CCC(N)=O)NC1=O [Example 117, Ac-c(Dap-Lys-Trp-Ile-Gln-Asp)-NH2] (Ac-[Dap]KWIQD-NH2; lactam 1-6)
8 | CC[C@H](C)[C@@H]1NC(=O)[C@H](Cc2c[nH]c3ccccc23)NC(=O)[C@H](CCCCN)NC(=O)[C@@H](NC(C)=O)CCNC(=O)C[C@@H](C(N)=O)NC(=O)[C@H](CCC(N)=O)NC1=O [Example 118, Ac-c(Dab-Lys-Trp-Ile-Gln-Asp)-NH2] (Ac-[Dab]KWIQD-NH2; lactam 1-6)
8 | CC[C@H](C)[C@@H]1NC(=O)[C@H](Cc2c[nH]c3ccccc23)NC(=O)[C@H](CCCCN)NC(=O)[C@@H](NC(C)=O)CCCNC(=O)C[C@@H](C(N)=O)NC(=O)[C@H](CCC(N)=O)NC1=O [Example 119, Ac-c(Orn-Lys-Trp-Ile-Gln-Asp)-NH2] (Ac-[Orn]KWIQD-NH2; lactam 1-6)
8 | CC[C@H](C)[C@@H]1NC(=O)[C@H](Cc2c[nH]c3ccccc23)NC(=O)[C@H](CCCCN)NC(=O)[C@@H](NC(C)=O)CCCCNC(=O)C[C@@H](C(N)=O)NC(=O)[C@H](CCC(N)=O)NC1=O [Example 120, Ac-c(Lys-Lys-Trp-Ile-Gln-Asp)-NH2] (Ac-KKWIQD-NH2; lactam 1-6)
10 | CC[C@H](C)[C@@H]1NC(=O)[C@H](Cc2c[nH]c3ccccc23)NC(=O)[C@H](CCCCN)NC(=O)[C@@H](NC(C)=O)CNC(=O)CC[C@@H](C(N)=O)NC(=O)[C@H](CCC(N)=O)NC1=O [Example 121, Ac-c(Dap-Lys-Trp-Ile-Gln-Glu)-NH2] (Ac-[Dap]KWIQE-NH2; lactam 1-6)
